The target of one test is T1, MET kinase (Homo sapiens, UniProt P08581).
T1 construct: purchased SignalChem
The test is described as follows: MET kinase assay (AlphaScreen, counter screen). The class given is biochemical. As to conditions: read-out: Ranking of IC50 values, MET. As to the method: Because MET kinase belonged to Class VIII RTK family have one transmembrane a chain linked with one extracellular β chain which is different form Class III RTK family with 5 Immunoglobin-like extracellular domains. Standard assay conditions were 1 ng of recombinant MET kinase (SignalChem) with 3 ng Biotin-conjugated Poly-(Glu 4: Tyr 1) (Cisbio) in the assay buffer ([…], 10 mM MOPs, pH 7.0, 0.21 mM EDTA, 0.5% glycerol, 1 mg/mL BSA, 0.01% 2-mercaptoethanol, 0.001% Brij35, 10 mM MgCl2) in a final volume of 25 μL. Reactions were incubated at 30° C. for 45 min and stopped by adding 5 μL of 50 mM EDTA. Analysis of resulting product using an AlphaScreen kit and counted with Enspire Alpha (PerkinElmer). […] The IC50 values of inhibitors were determined after carrying out assays with each compound at serially diluted concentrations in duplication. The results were analyzed using linear regression software (GraphPad Prism 5; GraphPad Software Inc.)

In test [1] the test system is phosphorylation of FLT3 and its down-stream effector STAT5. Kind of test: Western blotting of p-FLT3 and p-STAT5 in MV4-11 cells. It is filed as cell-based. As to conditions: Homo sapiens; at 30 nM treatment, 3 hours, FLT3-ITD positive MV4-11 leukemia cells; read-out: inhibition activity against phosphorylation of FLT3 and its down-stream effector STAT5. As for the experimental part:
The potent compounds of formula (I) in EXAMPLE 2 were evaluated, by western blotting assay, for their cellular potencies against phosphorylation of FLT3 and its down-stream effector STAT5 in MV4-11 leukemia cell line with constitutive activation of FLT3 signaling. For western blotting experiments, MV4-11 cells were cultured in IMDM medium containing 0.1% FBS overnight. On the assay day, three million cells were treated with or without compounds for 3 hours in 15 mL tubes. Then, the whole cell lysates were harvested, following extraction by adding 2×SDS Sample Buffer and boiling on hot plate at 105° C. for 15 minutes. The resulting cell lysates were separated by SDS-PAGE electrophoresis and transferred to PVDF membrane. Protein expression was detected using immunoblot with corresponding primary antibody and secondary antibody following the standard procedures. Antibody against p-FLT3 (Tyr-591), anti-rabbit IgG HRP-linked secondary antibody, and anti-mouse IgG HRP-linked secondary antibody were purchased from Cell Signaling Technology. Antibody against p-STAT5 (Tyr-694) was purchased from BD biosciences. Antibody against actin was purchased from R&D system. […] Band intensities of western blot were also quantified by ChemiDoc™ MP Imaging System. Relative intensities of bandscorresponding to drug treatments at a single concentration (30 nM) were compared to the DMSO control group. The percentage (%) inhibition at each drug concentration was calculated using the formula: Percentage(%)inhibition=(1−Relative intensity)×100.

Bounds are passed on as bounds.

T1 sequence (P08581 25-1390): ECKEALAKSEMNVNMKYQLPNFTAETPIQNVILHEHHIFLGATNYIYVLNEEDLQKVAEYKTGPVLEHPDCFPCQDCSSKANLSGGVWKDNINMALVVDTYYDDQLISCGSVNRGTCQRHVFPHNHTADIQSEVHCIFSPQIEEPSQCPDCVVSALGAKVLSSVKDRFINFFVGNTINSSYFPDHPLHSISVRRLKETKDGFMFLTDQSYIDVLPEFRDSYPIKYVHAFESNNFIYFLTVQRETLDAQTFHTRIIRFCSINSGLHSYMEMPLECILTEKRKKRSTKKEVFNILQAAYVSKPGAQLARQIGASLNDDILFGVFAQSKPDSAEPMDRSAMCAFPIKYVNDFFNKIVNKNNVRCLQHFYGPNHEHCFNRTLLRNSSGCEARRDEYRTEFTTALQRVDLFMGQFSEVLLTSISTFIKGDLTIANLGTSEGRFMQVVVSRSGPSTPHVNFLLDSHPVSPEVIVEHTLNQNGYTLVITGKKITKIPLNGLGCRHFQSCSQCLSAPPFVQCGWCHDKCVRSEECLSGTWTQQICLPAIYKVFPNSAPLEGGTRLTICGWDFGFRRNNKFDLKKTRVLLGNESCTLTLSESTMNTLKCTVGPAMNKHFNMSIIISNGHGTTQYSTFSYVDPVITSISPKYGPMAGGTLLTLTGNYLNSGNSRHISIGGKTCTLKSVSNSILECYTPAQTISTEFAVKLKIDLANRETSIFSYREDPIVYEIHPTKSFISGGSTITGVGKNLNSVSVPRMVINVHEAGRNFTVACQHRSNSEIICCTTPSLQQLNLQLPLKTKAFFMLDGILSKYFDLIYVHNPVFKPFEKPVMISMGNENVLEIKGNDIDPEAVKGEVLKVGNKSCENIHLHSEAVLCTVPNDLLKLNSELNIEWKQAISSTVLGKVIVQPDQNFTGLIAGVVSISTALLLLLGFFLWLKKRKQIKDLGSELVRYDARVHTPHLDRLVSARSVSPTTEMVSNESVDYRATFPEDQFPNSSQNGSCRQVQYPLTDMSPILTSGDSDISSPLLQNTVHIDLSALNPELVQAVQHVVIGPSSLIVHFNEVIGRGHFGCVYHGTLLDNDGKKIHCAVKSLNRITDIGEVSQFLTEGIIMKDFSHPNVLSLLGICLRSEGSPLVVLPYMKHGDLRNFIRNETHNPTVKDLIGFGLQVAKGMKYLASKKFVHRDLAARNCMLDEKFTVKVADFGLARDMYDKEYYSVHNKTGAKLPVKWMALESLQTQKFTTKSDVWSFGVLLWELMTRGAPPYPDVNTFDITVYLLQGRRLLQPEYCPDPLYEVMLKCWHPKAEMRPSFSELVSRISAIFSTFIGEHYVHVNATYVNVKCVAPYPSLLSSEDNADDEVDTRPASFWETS

On to `Cn1ncc2ccc(-c3n[nH]c4c3Cc3sc(C#CCN5CCOCC5)cc3-4)cc21` [Compound 71, 4-(3-(3-(1-methyl-1H-indazol-6-yl)-1,4-dihydro-thieno[2′,3′:4,5]cyclopenta [1,2-c]pyrazol-6-yl)prop-2-yn-1-yl)morpholine], for which the IC50 (usually the point on the concentration scale where inhibition reaches its midpoint) on MET kinase is greater than 1 µM. For the same molecule, the inhibition (in general, the change of the read-out against control, counted positive when it falls) at 0.03 µM in test [1] was greater than 50%.
Consider `Cn1ncc2ccc(-c3n[nH]c4c3Cc3sc(-c5ccc(NC6CCOCC6)cc5)cc3-4)cc21` [Compound 72, N-(4-(3-(1-methyl-1H-indazol-6-yl)-1,4-dihydro-thieno[2′,3′:4,5]cyclopenta [1,2-c]pyrazol-6-yl)phenyl)tetrahydro-2H-pyran-4-amine], for which, on MET kinase, the concentration for half-maximal inhibition (IC50) is greater than 1 µM. The inhibition at 0.03 µM in test [1] is greater than 50%.
On to `CN(C)C(=O)c1ccc(-c2cc3c(s2)Cc2c(-c4ccc5cnn(C)c5c4)n[nH]c2-3)cc1` [Compound 49, N,N-dimethyl-4-(3-(1-methyl-1H-indazol-6-yl)-1,4-dihydrothieno [2′,3′:4,5]cyclopenta [1,2-c]pyrazol-6-yl) benzamide], for which the IC50 at MET kinase was greater than 1 µM. In test [1], the inhibition at 0.03 µM was greater than 50%.
The matching figures for `C[C@H]1COCCN1Cc1ccc(-c2cc3c(s2)Cc2c(-c4ccc5cnn(C)c5c4)n[nH]c2-3)cc1` [Compound 75, (S)-3-methyl-4-(4-(3-(1-methyl-1H-indazol-6-yl)-1,4-dihydrothieno [2′,3′:4,5]cyclopenta [1,2-c]pyrazol-6-yl)benzyl)morpholine]: greater than 1 µM and greater than 50%.
The matching figures for `Cn1ncc2ccc(-c3n[nH]c4c3Cc3sc(-c5cc(F)c(CN6CCOCC6)c(F)c5)cc3-4)cc21` [Compound 53, 4-(2,6-difluoro-4-(3-(1-methyl-1H-indazol-6-yl)-1,4-dihydrothieno [2′,3′:4,5]cyclopenta [1,2-c]pyrazol-6-yl)benzyl)morpholine]: greater than 1 µM and greater than 50%.
The like results for `C[C@@H]1CN(Cc2ccc(-c3cc4c(s3)Cc3c(-c5ccc6cn[nH]c6c5)n[nH]c3-4)cc2)C[C@H](C)O1` [Compound 7, (2S,6R)-4-(4-(3-(1H-indazol-6-yl)-1,4-dihydrothieno[2′,3′:4,5]cyclopenta [1,2-c]pyrazol-6-yl)benzyl)-2,6-dimethylmorpholine] were, in that order, greater than 1 µM and greater than 50%.
In the case of `C[C@@H]1CN(Cc2cccc(-c3cc4c(s3)Cc3c(-c5ccc6cnn(C)c6c5)n[nH]c3-4)c2)C[C@H](C)O1` [Compound 12, (2S,6R)-2,6-dimethyl-4-(3-(3-(1-methyl-1H-indazol-6-yl)-1,4-dihydrothieno [2′,3′:4,5]cyclopenta[1,2-c]pyrazol-6-yl)benzyl) morpholine], the IC50 at MET kinase was greater than 1 µM. The inhibition at 0.03 µM in test [1] was greater than 50%.
The like results for `Cn1ncc2ccc(-c3n[nH]c4c3Cc3sc(-c5ccc(CN6CCOCC6)cn5)cc3-4)cc21` [Compound 95, 4-((6-(3-(1-methyl-1H-indazol-6-yl)-1,4-dihydro-thieno[2′,3′:4,5]cyclopenta [1,2-c]pyrazol-6-yl)pyridin-3-yl)methyl) morpholine] were, in that order, greater than 1 µM and greater than 50%.
The matching figures for `Cn1cc(-c2cc3c(s2)Cc2c(-c4ccc5cnn(C)c5c4)n[nH]c2-3)cc1C(=O)N1CCOCC1` [Compound 46, (1-methyl-4-(3-(1-methyl-1H-indazol-6-yl)-1,4-dihydrothieno[2′,3′:4,5]cyclopenta[1,2-c]pyrazol-6-yl)-1H-pyrrol-2-yl) (morpholino)methanone]: greater than 1 µM and greater than 50%.
The matching figures for `Cn1ncc2ccc(-c3n[nH]c4c3Cc3sc(C5CCN(C(=O)OC(C)(C)C)CC5)cc3-4)cc21` [Compound 58, tert-butyl-4-(3-(1-methyl-1H-indazol-6-yl)-1,4-dihydrothieno[2′,3′:4,5]cyclopenta[1,2-c]pyrazol-6-yl)piperidine-1-carboxylate]: greater than 1 µM and greater than 50%.
`Cn1ncc2ccc(-c3n[nH]c4c3Cc3sc(-c5cc(C(=O)N6CCOCC6)ccn5)cc3-4)cc21` [Compound 56, (2-(3-(1-methyl-1H-indazol-6-yl)-1,4-dihydro-thieno[2′,3′:4,5]cyclopenta [1,2-c]pyrazol-6-yl)pyridin-4-yl)(morpholino) methanone]: at MET kinase, the IC50 was greater than 1 µM. The inhibition at 0.03 µM in test [1] is greater than 50%.
For the molecule `Cn1ncc2ccc(-c3n[nH]c4c3Cc3sc(-c5ccc(CCN6CCOCC6)cc5)cc3-4)cc21` [Compound 22, 4-(4-(3-(1-methyl-1H-indazol-6-yl)-1,4-dihydro-thieno[2′,3′:4,5]cyclopenta [1,2-c]pyrazol-6-yl)phenethyl)morpholine], on MET kinase, the IC50 is greater than 1 µM. Moreover, in test [1], the inhibition at 0.03 µM was greater than 50%.
For the molecule `CC1C(=O)N(C)CCN1Cc1ccc(-c2cc3c(s2)Cc2c(-c4ccc5cnn(C)c5c4)n[nH]c2-3)cc1` (stereo not drawn) [Compound 65, 1,3-dimethyl-4-(4-(3-(1-methyl-1H-indazol-6-yl)-1,4-dihydrothieno [2′,3′:4,5]cyclopenta [1,2-c]pyrazol-6-yl)benzyl)piperazin-2-one], on MET kinase, the half-maximal inhibitory concentration (IC50) is greater than 1 µM. Moreover, the inhibition at 0.03 µM in test [1] is greater than 50%.
Regarding `Cn1ncc2ccc(-c3n[nH]c4c3Cc3sc(-c5ccc(C(=O)N6CCOCC6)cc5)cc3-4)cc21` [Compound 21, (4-(3-(1-methyl-1H-indazol-6-yl)-1,4-dihydro-thieno[2′,3′:4,5]cyclopenta [1,2-c]pyrazol-6-yl)phenyl) (morpholino)methanone], on MET kinase, the IC50 was greater than 1 µM. Moreover, the inhibition at 0.03 µM in test [1] was greater than 50%.
The like results for `CCC(c1ccc(-c2cc3c(s2)Cc2c(-c4ccc5cnn(C)c5c4)n[nH]c2-3)cc1)N1CCOCC1` (stereo not drawn) [Compound 28, 4-(1-(4-(3-(1-methyl-1H-indazol-6-yl)-1,4-dihydro-thieno[2′,3′:4,5]cyclopenta [1,2-c]pyrazol-6-yl)phenyl)propyl)morpholine] were, in that order, greater than 1 µM and greater than 50%.
For `Cn1ncc2ccc(-c3n[nH]c4c3Cc3sc(-c5ccc(OCCN6CCOCC6)cc5)cc3-4)cc21` [Compound 69, 4-(2-(4-(3-(1-methyl-1H-indazol-6-yl)-1,4-dihydro-thieno[2′,3′:4,5]cyclopenta [1,2-c]pyrazol-6-yl)phenoxy)ethyl)morpholine], the IC50 at MET kinase was greater than 1 µM. For the same molecule, the inhibition at 0.03 µM in test [1] was greater than 50%.
`CN(C)S(=O)(=O)c1ccc(-c2cc3c(s2)Cc2c(-c4ccc5cnn(C)c5c4)n[nH]c2-3)cc1` [Compound 50, N,N-dimethyl-4-(3-(1-methyl-1H-indazol-6-yl)-1,4-dihydrothieno [2′,3′:4,5]cyclopenta [1,2-c]pyrazol-6-yl) benzenesulfonamide]: the IC50 at MET kinase is greater than 1 µM. Further, the inhibition at 0.03 µM in test [1] was greater than 50%.
The like results for `Cn1ncc2ccc(-c3n[nH]c4c3Cc3sc(C5CCN(C(=O)CN6CCOCC6)CC5)cc3-4)cc21` [Compound 98, 1-(4-(3-(1-methyl-1H-indazol-6-yl)-1,4-dihydro-thieno[2′,3′:4,5]cyclopenta [1,2-c]pyrazol-6-yl)piperidin-1-yl)-2-morpholinoethan-1-one] were, in that order, greater than 1 µM and greater than 50%.
The matching figures for `Cn1ncc2ccc(-c3n[nH]c4c3Cc3sc(N5CCOCC5=O)cc3-4)cc21` [Compound 79, 4-(3-(1-methyl-1H-indazol-6-yl)-1,4-dihydro-thieno[2′,3′:4,5]cyclopenta [1,2-c]pyrazol-6-yl) morpholin-3-one]: greater than 1 µM and greater than 50%.
The matching figures for `Cn1ncc2ccc(-c3n[nH]c4c3Cc3sc(-c5ccc(CN6CCCOCC6)cc5)cc3-4)cc21` [Compound 97, 4-(4-(3-(1-methyl-1H-indazol-6-yl)-1,4-dihydro-thieno[2′,3′:4,5]cyclopenta [1,2-c]pyrazol-6-yl)benzyl)-1,4-oxazepane]: greater than 1 µM and greater than 50%.
In the case of `Cn1ncc2ccc(-c3n[nH]c4c3Cc3sc(-c5ccc(C(=O)N6CCCCC6)cc5)cc3-4)cc21` [Compound 34, (4-(3-(1-methyl-1H-indazol-6-yl)-1,4-dihydro-thieno[2′,3′:4,5]cyclopenta [1,2-c]pyrazol-6-yl)phenyl)(piperidin-1-yl) methanone], at MET kinase, the IC50 was greater than 1 µM. In test [1], the inhibition at 0.03 µM is greater than 50%.

The values are drawn from patent US12448394B2, “Heterocyclic pyrazole derivatives as type III receptor tyrosine kinase inhibitors” (DEVELOPMENT CENTER FOR BIOTECHNOLOGY, priority 2019, dated 2025).
